Test system: Psychomotor seizures induced via corneal stimulation (6 Hz)
Experiment: 6 Hz electroshock seizure model (anticonvulsant properties)
Assay type: in vivo
Details: Mus musculus, po, 32 mA, 3 s corneal stimulation, p.o., pretreatment time 60 mins, vehicle 5% cremaphor, female NMRI mice, read-out: ED50 (dose that would give a 50% protection from seizures)
Excerpt: The animal models being used for the discovery of novel antiepileptic drugs are numerous. Among these, a low frequency (6 Hz) electroshock seizure model has recently come into the limelight as a potential model of pharmacoresistant epilepsy (see Epilepsy: a comprehensive textbook, pag. 1477, by Jerome Engel, Timothy A. Pedley, Jean Aicardi, Marc A Dichter, Solomon Moshé—2007—Medical), and it is therefore an animal model of primary interest in antiepileptic drug discovery. The compounds of the invention have shown remarkable activity to protect against 6 Hz seizures.
The evaluation of the anticonvulsant properties was carried out in female NMRI mice (20-25 g, Taconic, Denmark). The mice were housed in groups (8 per cage according to weight) with food and water available ad libitum The environment was temperature (20±2° C.) and humidity (55±15%) controlled, and consisted of a 12:12 h light-dark cycle (lights on 06:00 h). The experiments were performed according to the Danish Committee for Experiments on Animals. […]
For screening purposes, the test compound was tested at 1 dose at 1 time-point. In the case of protection of 3 or more out of 8 mice, the compound were further evaluated in dose response (N=8/group). […]

Row | Compound | ED50
1 | NC(=O)Cn1c(=O)ccc2cc(Br)ccc21 [Compound 1, 2-(6-Bromo-2-oxo-1-quinolyl)acetamide] | 16 mg/kg

Test system: not given
Experiment: not given
Details: not given

Row | melting point | Compound
2 | 256.6 to 257.5 °C | NC(=O)Cn1c(=O)ccc2cc(Br)ccc21 [Compound 1, 2-(6-Bromo-2-oxo-1-quinolyl)acetamide]
3 | 166.5 to 167.6 °C | NC(=O)Cn1c(=O)ccc2cccc(Cl)c21 [Compound 5, 2-(8-chloro-2-oxo-1-quinolyl)acetamide]
4 | 159.4 to 160.9 °C | NC(=O)Cn1c(=O)ccc2cc(Cl)ccc21 [Compound 4, 2-(6-chloro-2-oxo-1-quinolyl)acetamide]
5 | 127.5 to 128.8 °C | CCC(C(N)=O)n1c(=O)ccc2cc(Cl)ccc21 (stereo not drawn) [Compound 7, 2-(6-chloro-2-oxo-1-quinolyl)butanamide]

Second part, the compound before the results:

Row | Compound | melting point
6 | NC(=O)Cn1c(=O)ccc2cccc(Br)c21 [Compound 3, 2-(8-bromo-2-oxo-1-quinolyl)acetamide] | 158.5 to 160 °C
7 | CCC(C(N)=O)n1c(=O)ccc2cc(Br)ccc21 (stereo not drawn) [Compound 2, 2-(6-bromo-2-oxo-1-quinolyl)butanamide] | 138.5 to 140 °C
8 | CCC(C(N)=O)n1c(=O)ccc2cccc(Br)c21 (stereo not drawn) [Compound 8, 2-(8-bromo-2-oxo-1-quinolyl)butanamide] | 124.2 to 125.5 °C
9 | CCC(C(N)=O)n1c(=O)ccc2cccc(Cl)c21 (stereo not drawn) [Compound 6, 2-(8-chloro-2-oxo-1-quinolyl)butanamide] | 127 to 128 °C
